Data as given in patent publication US20240390490A1, “PHARMACEUTICAL COMPOSITIONS FOR THE TREATMENT OF CANCERS” (Rutgers, The State University of New Jersey, priority 2021, published 2024).

Columns and labels:
[1] = test system: MDA-MB-231, MDA-MB-468, and T47D cells; test: Transwell cell migration assay; type: cell-based, human; settings: 100 μM, 12 hours
Protocol: Cell migration assay was performed following the procedure described previously (26). In brief, the upper insert chambers (8-μm pore polycarbonate membrane) were seeded with cells at a density of 5×10^4 cells (cell numbers established by preliminary experiments) per well in the appropriate serum-free medium. A 10% FBS-containing media was then added to the lower chamber to serve as a chemoattractant. […] The photographs were used to count the number of migrated cells in Adobe Photoshop.

[2] = test system: MDA-MB-231 cells; test: Cell cycle analysis (PI staining); type: cell-based, human; settings: 100 μM
Protocol: Cell cycle analysis of breast cancer cells was carried out using propidium iodide (PI) staining protocol according to the manufacturer's instructions (Nexcelom Bioscience LLC, Lawrence, MA). […] Then, cells were harvested by trypsinization, centrifuged at 2000 rpm for 5 minutes, washed with PBS (pH 7.4), and fixed in ice cold 100% ethanol for 15 minutes. The cells were spun down and resuspended in 150 μl of PI-staining solution provided with the Cellometer PI Cell Cycle Kit. The PI-stained cells were then subjected to analysis in the Cellometer Vision instrument (Nexcelom Bioscience LLC) and the data was captured on Cellometer Vision CBA software (Nexcelom Bioscience LLC) and analyzed by FCS Express 4 software (Molecule Devices, Corp., Sunnyvale, CA). Differences in fluorescence intensity were used to determine the percentage of cells in each phase of the cell cycle and represented as histograms for control and drug-treated samples.

[3] = test system: MDA-MB-231, MDA-MB-468, and T47D cells; test: Matrigel cell invasion assay; type: cell-based, human; settings: 100 μM, 48 hours, Matrigel coated membrane
Protocol: The invasive and metastatic potential of cell lines was tested by transmigration through an extracellular matrix (ECM) by a previously described method (26). In brief, the upper chamber of the matrix in 24-well Matrigel invasion chamber plates (BD BioCoat™ Matrigel™ Chamber, BD Biosciences, San Jose, CA) was loaded with 5×10^4 cells in 500 μl of the appropriate medium (cell numbers established by preliminary experiments). After 24 hours, medium containing 1% FBS was used on both the lower and upper surfaces. One day later, the medium of the upper chamber was replaced with 500 μl medium containing 1% FBS without any drug treatment. The medium was replaced with medium containing 10% FBS and 25 ng/ml EGF in the lower chamber. The effect of beta-adrenergic and opioidergic drugs was tested by adding a 100 μM concentration of these drugs alone or in combination or vehicle alone in both lower and upper chambers. After 48 hours of incubation, the noninvasive cells that remained within the inserts were removed with a cotton swab. Cells that traversed through the Matrigel and the polycarbonate filter (8-μm pore size) attached to the lower surface were stained with 0.5% crystal violet for calculating the invasion index. Cells were visualized and photographed as described in the migration assay. The photographs were used to count invasive cells in Adobe Photoshop.

[4] = test system: NK cells and macrophages in tumor tissues; test: Immunocytochemistry and flow cytometry of tumor-infiltrating immune cells; type: in vivo, rat
Protocol: Thin paraffin sections (5 μm) of tumors were stained using the ABC Elite Vectastain Kit (Vector Labs) according to the manufacturer's instructions using various primary antibodies. Details of all primary antibodies used are described above. In addition, cell proliferation-associated antigen (Ki-67; 1:200) were purchased from Abcam. After the primary antibody incubation and PBS wash, sections were incubated with peroxidase-coupled anti-rabbit Ig ImmPRESS reagent (Vector Laboratories, Inc.). Antigen localization was achieved by using the 3,3′-diaminobenzidine-peroxidase reaction, and sections were dehydrated, and cover slipped. To evaluate the immunohistochemical staining, sections were photographed using a Nikon-TE 2000 inverted microscope. Intensity of staining was categorized as negative and strongly positive (27). Brown-stained spots are immuno positive cells. Data are means±SEM obtained from 3 serial sections of 5 to 6 animals in each group.
Tumor-infiltrating immune cells were collected from MDA-MB-231 cell xenograft tumors to examine and compare the immune cell population among control and drug-treated animals. Briefly, single-cell suspensions of tumor tissue were achieved by mincing the tissue with a scalpel blade using a crisscross method, ground with 1-ml of ACK lysing buffer to remove red blood cells. The cell suspensions were filtered through a 70-micron sieve and then washed with PBS. Cells from the tumor were collected and dispersed with 100 μl of PBS and stained by the addition of fluorescence-conjugated antibodies. For flow cytometry experiments, single-cell suspension derived from tumors, PBMC, and splenocytes were used to characterize the immune cell population. Fluorophore-conjugated antibodies were used to detect surface markers of specific cell types and markers are as follows: for NK cells (CD161a (10/78)), tissue macrophage (RT1B (OX-6)), dendritic cells (CD103 (OX-62)), peripheral monocytes (CD11b (ED8)), B cells (CD45RA (OX-33)), and DAPI (Sigma) was used to exclude dead cells.
Immune cells from the tumor, PBMC, and splenocyte samples were examined by following the gating strategy as described below. First, side scatter area (SSC-A) versus forward scatter area (FSC-A) were used to exclude cellular debris, then forward scatter height (FSC-H) versus FSC-A were used to select single cells. Single cells were sub-gated using DAPI viability dye and a further live cell population was used to select markers. Expression of a particular cell surface marker in a specific population of cells was identified and represented as single parameter histograms. Unstained cells and compensation beads (BD Biosciences, CA) were used to set voltages and create single stain negative and positive controls. Additional negative controls (isotype control and fluorescence minus one (FMO)) were also used to determine any non-specific binding in the present study. The data collected from each sample were exported and analyzed using FlowJo™ version 10.7.

[5] = test system: MDA-MB-231 cells; test: Clonogenic (colony formation) assay; type: cell-based, human; settings: 100 μM, 14 days
Protocol: The clonogenic assay was performed as previously described (25). Briefly, cells were suspended in culture media and were seeded into 6-well tissue culture plates at a density of 1,000 cells/well, allowed to adhere overnight, and treated with vehicle alone or a 100 μM concentration of beta-adrenergic and opioidergic drugs alone or in combination. Fresh medium and drugs were changed every 3 or 4 days for 14 days. At the end of the experiment, the cell colonies were stained with 0.5% crystal violet, subjected to image acquisition, and quantified in Adobe Photoshop (Adobe Systems, San Jose, CA). The crystal violet-stained cell colonies were extracted with 10% acetic acid and used for optical density (OD) measurements for determination of colony growth. Drug effects on these cells were determined in duplicate wells in three independent experiments.

Structure (SMILES)	cell migration [1]	number of cells in G0/G1 phase [2]	number of cells in G2/M phase [2]	number of cells in S phase [2]	cell invasion [3]	percentage of CD161+ NK cells in the tumor tissues [4]	percentage of CD163+ macrophages in the tumor tissues [4]	colony formation [5]
CC1(C)SSC(C)(C)[C@@H](NC(=O)[C@@H](N)Cc2ccc(O)cc2)C(=O)NCC(=O)N[C@@H](Cc2ccccc2)C(=O)N[C@H]1C(=O)O [DPDPE, (D-Pen^2, D-Pen^5)-enkephalin]	significant but moderate inhibitory effects	reduced	increased	no significant changes	decreased cell invasion	increased	decreased	moderate inhibition
O=C1CC[C@@]2(O)[C@H]3Cc4ccc(O)c5c4[C@@]2(CCN3CC2CC2)[C@H]1O5 [NTX, 17-(cyclopropylmethyl)-4,5α-epoxy-3,14-dihydroxymorphinan-6-one]	significant but moderate inhibitory effects	reduced	increased	no significant changes	decreased cell invasion	increased	decreased	moderate inhibition
CC(C)NCC(O)COc1cccc2ccccc12 (stereo not drawn) [PRO, propranolol]	significant but moderate inhibitory effects	reduced	increased	no significant changes	decreased cell invasion	increased	decreased	moderate inhibition
